Source: EP2818472A1, “Imidazo[4,5-c]pyridine and pyrrolo[3,2-c]pyridine compounds as G-protein-coupled receptor kinase 5 (GRK5) modulators” (Max-Planck-Gesellschaft zur Förderung der Wissenschaften …, priority 2013, dated 2014)

These molecules were tested on beta-TC6 cells (assay: Insulin HTRF assay (relative activity Ar) in beta-TC6 cells). Settings: Mus musculus, Beta-TC6, 4 h, insulin HTRF, supernatant of beta-TC6 cells, incubation with test compound at 37°C for 2, 3, 4h; read-out: Ar (relative activity).
Assay type: cell-based, mouse
In short: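 beta-TC6 cells (15k/well, seeded 24 or 48 h) washed, then exposed to compound in induction buffer (0.5% DMSO final) for 2, 3 or 4 h at 37°C.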

| SMILES | Emax [%] |
| --- | --- |
| COc1cncc(-c2cc3c(cn2)nc(-c2ccco2)n3C)c1 [Compound 764, 2-(2-furyl)-6-(5-methoxy-3-pyridyl)-1-methyl-imidazo[4,5-c]pyridine] | 0 to 30 |
| CNc1nc2cnc(Nc3cccc(C(F)(F)F)c3)cc2n1Cc1cccnc1 [Compound 765, N2-methyl-1-(3-pyridylmethyl)-N6-[3-(trifluoromethyl)phenyl]imidazo[4,5-c]pyridine-2,6-diamine] | 0 to 30 |
| CNc1nc2cnc(Nc3cc(OC)cc(C(F)(F)F)c3)cc2n1Cc1ccco1 [Compound 767, 1-(2-furylmethyl)-N6-[3-methoxy-5-(trifluoromethyl)phenyl]-N2-methyl-imidazo[4,5-c]pyridine-2,6-diamine] | 0 to 30 |
| CNc1nc2cnc(-c3cccc(NS(C)(=O)=O)c3)cc2n1-c1cccc(F)c1 [Compound 768, N-[3-[1-(3-fluorophenyl)-2-(methylamino)imidazo[4,5-c]pyridin-6-yl]phenyl]methanesulfonamide] | 0 to 30 |
| Cn1c(NCCN2CCOCC2)nc2cnc(-c3cccc(F)c3)cc21 [Compound 769, 6-(3-fluorophenyl)-1-methyl-N-(2-morpholinoethyl)imidazo[4,5-c]pyridin-2-amine] | 0 to 30 |
| COCCNc1nc2cnc(-c3ccccc3C)cc2n1C [Compound 770, N-(2-methoxyethyl)-1-methyl-6-(o-tolyl)imidazo[4,5-c]pyridin-2-amine] | 0 to 30 |
| CNc1nc2cnc(-c3cccc(C(=O)NCCN(C)C)c3)cc2n1-c1cccc(F)c1 [Compound 771, N-(2-dimethylaminoethyl)-3-[1-(3-fluorophenyl)-2-(methylamino)imidazo[4,5-c]pyridin-6-yl]benzamide] | 0 to 30 |
| CNc1nc2cnc(Nc3cccc(C(C)C)c3)cc2n1CCOC [Compound 772, N6-(3-isopropylphenyl)-1-(2-methoxyethyl)-N2-methyl-imidazo[4,5-c]pyridine-2,6-diamine] | 0 to 30 |
| CNc1nc2cnc(Nc3ccc(OC(F)(F)F)cc3)cc2n1CCOC [Compound 773, 1-(2-methoxyethyl)-N2-methyl-N6-[4-(trifluoromethoxy)phenyl]imidazo[4,5-c]pyridine-2,6-diamine] | 0 to 30 |
| Cc1ccc(-c2nc3ccncc3[nH]2)cc1 [Compound 774, 2-(p-tolyl)-3H-imidazo[4,5-c]pyridine] | 0 to 30 |
| Fc1ccc(-c2nc3ccncc3[nH]2)cc1 [Compound 775, 2-(4-fluorophenyl)-3H-imidazo[4,5-c]pyridine] | 0 to 30 |
| Cn1nc(C(C)(C)C)cc1Nc1cc2c(cn1)ncn2Cc1ccco1 [Compound 776, N-(5-tert-butyl-2-methyl-pyrazol-3-yl)-1-(2-furylmethyl)imidazo[4,5-c]pyridin-6-amine] | 0 to 30 |
| CNc1nc2cnc(Nc3cc(C(F)(F)F)ccc3F)cc2n1Cc1ccco1 [Compound 777, N6-[2-fluoro-5-(trifluoromethyl)phenyl]-1-(2-furylmethyl)-N2-methyl-imidazo[4,5-c]pyridine-2,6-diamine] | 0 to 30 |
| Cn1c(-c2ccc3ccccc3n2)nc2cnccc21 [Compound 778, 2-(1-methylimidazo[4,5-c]pyridin-2-yl)quinoline] | 0 to 30 |
| CNc1nc2cnc(-c3ccccc3OC)cc2n1-c1ccccc1 [Compound 782, 6-(2-methoxyphenyl)-N-methyl-1-phenyl-imidazo[4,5-c]pyridin-2-amine] | 0 to 30 |
| CNc1nc2cnc(-c3cccc(N(C)C)c3)cc2n1-c1ccccc1 [Compound 783, 6-[3-(dimethylamino)phenyl]-N-methyl-1-phenyl-imidazo[4,5-c]pyridin-2-amine] | 0 to 30 |
| CNc1nc2cnc(-c3ccc(F)c(Cl)c3)cc2n1-c1ccccc1 [Compound 784, 6-(3-chloro-4-fluoro-phenyl)-N-methyl-1-phenyl-imidazo[4,5-c]pyridin-2-amine] | 0 to 30 |
| CNc1nc2cnc(-c3ccc(C(N)=O)cc3)cc2n1-c1ccccc1 [Compound 786, 4-[2-(methylamino)-1-phenyl-imidazo[4,5-c]pyridin-6-yl]benzamide] | 0 to 30 |
| CNc1nc2cnc(-c3cccnc3OC)cc2n1-c1ccccc1 [Compound 788, 6-(2-methoxy-3-pyridyl)-N-methyl-1-phenyl-imidazo[4,5-c]pyridin-2-amine] | 30 to 50 |
| CNc1nc2cnc(-c3ccc4c(c3)OCO4)cc2n1Cc1ccccc1 [Compound 791, 6-(1,3-benzodioxol-5-yl)-1-benzyl-N-methyl-imidazo[4,5-c]pyridin-2-amine] | 0 to 30 |
| CNc1nc2cnc(-c3ccc(Cl)cc3)cc2n1Cc1ccccc1 [Compound 792, 1-benzyl-6-(4-chlorophenyl)-N-methyl-imidazo[4,5-c]pyridin-2-amine] | 30 to 50 |

| SMILES | Emax [%] |
| --- | --- |
| CNc1nc2cnc(-c3cccc(C(=O)NCCN(C)C)c3)cc2n1Cc1ccccc1 [Compound 793, 3-[1-benzyl-2-(methylamino)imidazo[4,5-c]pyridin-6-yl]-N-(2-dimethylaminoethyl)benzamide] | 0 to 30 |
| CNc1nc2cnc(-c3cccc(C(=O)NCCO)c3)cc2n1Cc1ccccc1 [Compound 794, 3-[1-benzyl-2-(methylamino)imidazo[4,5-c]pyridin-6-yl]-N-(2-hydroxyethyl)benzamide] | 0 to 30 |
| CNc1nc2cnc(-c3ccc(O)c(OC)c3)cc2n1Cc1ccccc1 [Compound 797, 4-[1-benzyl-2-(methylamino)imidazo[4,5-c]pyridin-6-yl]-2-methoxy-phenol] | 30 to 50 |
| CNc1nc2cnc(-c3ccoc3)cc2n1Cc1ccccc1 [Compound 798, 1-benzyl-6-(3-furyl)-N-methyl-imidazo[4,5-c]pyridin-2-amine] | 30 to 50 |
| CNc1nc2cnc(-c3ccc(NC(C)=O)cc3)cc2n1Cc1ccccc1 [Compound 799, N-[4-[1-benzyl-2-(methylamino)imidazo[4,5-c]pyridin-6-yl]phenyl]acetamide] | 0 to 30 |
| Cc1cccc(CNc2nc3cnc(-c4ccc(N(C)C)cc4)cc3n2C)c1 [Compound 802, 6-(4-dimethylaminophenyl)-1-methyl-N-(m-tolylmethyl)imidazo[4,5-c]pyridin-2-amine] | 50 to 100 |
| Cc1cccc(CNc2nc3cnc(-c4ccc(S(C)(=O)=O)cc4)cc3n2C)c1 [Compound 806, 1-methyl-6-(4-methylsulfonylphenyl)-N-(m-tolylmethyl)imidazo[4,5-c]pyridin-2-amine] | 30 to 50 |
| COc1ccc(-c2cc3c(cn2)nc(NCc2cccc(C)c2)n3C)cc1 [Compound 807, 6-(4-methoxyphenyl)-1-methyl-N-(m-tolylmethyl)imidazo[4,5-c]pyridin-2-amine] | 30 to 50 |
| COc1cc(-c2cc3c(cn2)nc(NCc2cccc(C)c2)n3C)ccc1O [Compound 808, 2-methoxy-4-[1-methyl-2-(m-tolylmethylamino)imidazo[4,5-c]pyridin-6-yl]phenol] | 30 to 50 |
| Cc1cccc(CNc2nc3cnc(-c4ccc(N)nc4)cc3n2C)c1 [Compound 811, 6-(6-amino-3-pyridyl)-1-methyl-N-(m-tolylmethyl)imidazo[4,5-c]pyridin-2-amine] | 30 to 50 |
| COc1cc(Nc2nc3cnc(-c4cccc(F)c4)cc3n2C)cc(OC)c1OC [Compound 814, 6-(3-fluorophenyl)-1-methyl-N-(3,4,5-trimethoxyphenyl)imidazo[4,5-c]pyridin-2-amine] | 0 to 30 |
| COc1ccc(OC)c(CCNc2nc3cnc(-c4ccc5c(c4)OCO5)cc3n2C)c1 [Compound 816, 6-(1,3-benzodioxol-5-yl)-N-[2-(2,5-dimethoxyphenyl)ethyl]-1-methyl-imidazo[4,5-c]pyridin-2-amine] | 0 to 30 |
| COc1ccc(OC)c(CCNc2nc3cnc(-c4cccc(O)c4)cc3n2C)c1 [Compound 820, 3-[2-[2-(2,5-dimethoxyphenyl)ethylamino]-1-methyl-imidazo[4,5-c]pyridin-6-yl]phenol] | 30 to 50 |
| COc1ccc(OC)c(CCNc2nc3cnc(-c4cccc(C(N)=O)c4)cc3n2C)c1 [Compound 822, 3-[2-[2-(2,5-dimethoxyphenyl)ethylamino]-1-methyl-imidazo[4,5-c]pyridin-6-yl]benzamide] | 0 to 30 |
| COc1cccc(-c2cc3c(cn2)nc(NCCc2cc(OC)ccc2OC)n3C)c1 [Compound 823, N-[2-(2,5-dimethoxyphenyl)ethyl]-6-(3-methoxyphenyl)-1-methyl-imidazo[4,5-c]pyridin-2-amine] | 30 to 50 |
| COc1ccc(OC)c(CCNc2nc3cnc(-c4cccc(NS(C)(=O)=O)c4)cc3n2C)c1 [Compound 825, N-[3-[2-[2-(2,5-dimethoxyphenyl)ethylamino]-1-methyl-imidazo[4,5-c]pyridin-6-yl]phenyl]methanesulfonamide] | 0 to 30 |
| Cn1c(NCC2CC2)nc2cnc(-c3ccccc3)cc21 [Compound 826, N-(cyclopropylmethyl)-1-methyl-6-phenyl-imidazo[4,5-c]pyridin-2-amine] | 30 to 50 |
| CN(C)c1cccc(-c2cc3c(cn2)nc(NCC2CC2)n3C)c1 [Compound 828, N-(cyclopropylmethyl)-6-[3-(dimethylamino)phenyl]-1-methyl-imidazo[4,5-c]pyridin-2-amine] | 30 to 50 |
| CNc1nc2cnc(-c3ccc(CO)cc3)cc2n1C [Compound 830, [4-[1-methyl-2-(methylamino)imidazo[4,5-c]pyridin-6-yl]phenyl]methanol] | 30 to 50 |
| CNc1nc2cnc(-c3cccc(C(F)(F)F)c3)cc2n1C [Compound 831, N,1-dimethyl-6-[3-(trifluoromethyl)phenyl]imidazo[4,5-c]pyridin-2-amine] | 0 to 30 |

Same assay, conditions: insulin HTRF, supernatant of beta-TC6 cells, incubation with test compound at 37°C for 2, 3, 4h

| SMILES | Ar (relative activity) |
| --- | --- |
| CNc1nc2cnc(-c3ccc(N(C)C)cc3)cc2n1-c1ccccc1 [Compound 781, 6-(4-dimethylaminophenyl)-N-methyl-1-phenyl-imidazo[4,5-c]pyridin-2-amine] | +++ (50 % ≤ Ar < 100 %) |
| CNc1nc2cnc(-c3ccc(CO)cc3)cc2n1-c1ccccc1 [Compound 785, [4-[2-(methylamino)-1-phenyl-imidazo[4,5-c]pyridin-6-yl]phenyl]methanol] | + (0 % < Ar < 30 %) |
